Test results taken from US7253175B2, “Method for treating athlete's foot” (priority 2003, dated 2007).
Where a name gives a salt, the structure may show the parent alone.

System: athlete's foot (fungal infection of toe nails and skin of the feet)
Experiment: Treatment of a patient with athlete's foot (case example)
Assay type: in vivo, human
Text: Fungal infections, including tineapedis (fungal infections on the feet), tineamanus (fungal infections on the hands) and tineacorporis (fungal infections on the body), are diagnosed by methods or tests commonly conducted by a person of ordinary skill in the art. The common symptoms of such disease are described above. In the case of fungal infection on nails such as finger nails and toenails, the infected areas usually show thickening of the nails with white spots, while if the skin is infected, itching scaling, redness and/or blisters will appear. A laboratory test may be conducted by culturing a skin sample or nail sample in the infected area in an appropriate medium to observe the growth of fungi. The infections may also be identified by scraping the infected skin or nail and examining the such specimen under a microscope in the presence of potassium hydroxide, which assists to determine the presence of fungi.
A patient suffered from athlete's foot for four years. The patients toe nails had became whitening, thickening and cracking due to the infection. […] The patient was reported to experienced pain due to the thickening and cracking of the toe nails the swelling of the skin. […]

`CC(C)[C@H](N)C(=O)OCCOCn1cnc2c(=O)[nH]c(N)nc21` [Valtrex, L-valine, 2-[(2-amino-1,6-dihydro-6-oxo-9H-purin-9-yl)methoxy]ethyl ester, monhydrochloride] was tested. Which “laboratory test for fungal infections on the patient's toe nails and skin” value (after daily dosage of three grams divided into three times for seven days) did it give?
Its value is “no longer fungal infections”.

And the “symptoms of the patient's athlete's foot at the end of treatment” value (patient, about 230 pounds, daily dosage of three grams divided into three times for seven days)?
The value was “completely disappear”.
